{
  "source": "patent US9901639B2",
  "about": "“Bone marrow origin progenitor cell or endothelial progenitor cell in combination with DNMT1 gene therapy for vascular repair in metabolic disease” (Temple University—of the Commonwealth System of Higher …, priority 2015, dated 2018)",
  "type_in_all_cases": "cell-based, human",
  "key": {"hEPCs [1]": {"test_system": "hEPCs", "test": "hEPC adhesion assay on fibronectin", "conditions": "L-Hcy 250 μmol/L, 48 h", "from_the_text": "(§1) In this study EPCs refer to endothelial colony-forming cells (ECFCs) and their progenitor cell capacities were characterized as described (Wu, Y et al., J Thromb Haemost, 2010; 8:185-193; Wang, H et al., Circulation research, 2004; 94:843 and Stellos, K et al., Eur Heart J., 2009; 30:584-593). Briefly, human blood was collected from healthy volunteer donors. All volunteers had no risk factors of CVD including hypertension, diabetes, smoking, positive family history of premature CVD and hypercholesterolemia, and were all free of wounds, ulcers, retinopathy, recent surgery, inflammatory, malignant diseases, and medications that may influence EPC kinetics. After dilution with HBSS (1:1), blood was overlaid onto Histopaque 1077 (Sigma-Aldrich Co. LLC, St. Louis, Mo.) in the ratio of 1:1 and centrifuged at 740 g for 30 minutes at room temperature. Buffy coat MNCs were collected and centrifuged at 700 g for 10 minutes at room temperature. MNCs were cultured in collagen type I (BD Bioscience, San Diego) (50 m/ml)-coated dishes with EBM2 basal medium (Lonza Inc., Allendale, N.J.) plus standard EGM-2 SingleQuotes (Lonza Inc., Allendale, N.J.) that includes 2% fetal bovine serum (FBS), EGF (20 ng/ml), hydrocortisone (1 μg/ml), bovine brain extract (12 μg/ml), gentamycin (50 μg/ml), amphotericin B (50 ng/ml), and epidermal growth factor (10 ng/ml). Colonies appeared between 5 and 22 days of culture were identified as a well-circumscribed monolayer of cobblestone-appearing cells. […] After staining, cells were imaged with high-power fields under an inverted fluorescent microscope (Axiovert 200, Carl Zeiss, Thornwood, N.Y.) at 200× magnification and quantified using Image J software. […]\nEPC adhesion to extracellular matrix (ECM) was evaluated as previously described. […] Adherent cells were photographed with high-power fields under an inverted fluorescent microscope (Axiovert 200, Carl Zeiss, Thornwood, N.Y.) at 200× magnification and quantified by counting the attached cells using image J."}, "hEPCs [2]": {"test_system": "hEPCs", "test": "hEPC scratch wound migration assay", "from_the_text": "as §1, with “cells. ECFCs with endothelial lineage markers expression, robust proliferative potential, colony-forming, and vessel-forming activity in vitro are defined as EPCs as described (Wang, H et al., Circulation research, 2004; 94:843 and Stellos, K et al., Eur Heart J., 2009; 30:584-593). Passage 4 to 6 EPCs were used for experiments. For a brief characterization, endothelial phagocytosis function was confirmed by incubating EPC in 4-well chamber slide with 1, 1-dioctadecyl-3, 3, 3, 3-tetramethylindocarbocyanine (DiI)-labeled acetylated low-density lipoprotein (acLDL) (Biomedical Technologies, Inc., Stoughton, Mass.) (5 m/ml) at 37° C. for 1 h, washed 3 times for 15 min in PBS, and then fixed with 2% paraformaldehyde for 10 min.” for “cells.”\nEPC migration was evaluated using a scratch wound assay as previously described (Tan, H et al., Cardiovascular research, 2006; 69:253-262). […]"}, "hEPCs [3]": {"test_system": "hEPCs", "test": "hEPC 3H-thymidine incorporation proliferation assay", "conditions": "L-Hcy 50 to 250 μmol/L, 24 h", "from_the_text": "In this study EPCs refer to endothelial colony-forming cells (ECFCs) and their progenitor cell capacities were characterized as described (Wu, Y et al., J Thromb Haemost, 2010; 8:185-193; Wang, H et al., Circulation research, 2004; 94:843 and Stellos, K et al., Eur Heart J., 2009; 30:584-593). Briefly, human blood was collected from healthy volunteer donors. All volunteers had no risk factors of CVD including hypertension, diabetes, smoking, positive family history of premature CVD and hypercholesterolemia, and were all free of wounds, ulcers, retinopathy, recent surgery, inflammatory, malignant diseases, and medications that may influence EPC kinetics. […] After staining, cells were imaged with high-power fields under an inverted fluorescent microscope (Axiovert 200, Carl Zeiss, Thornwood, N.Y.) at 200× magnification and quantified using Image J software. […]\n^3H thymidine incorporation assay was used to detect EPC proliferation activity as previously described (Tan, H et al., Cardiovascular research, 2006; 69:253-262). ^3EPCs were seeded onto 24-well plates (5×10^4 cells/well) in EGM2 medium and exposed to L-Hcy (50 to 250 μmol/L) for 24 h after grown to 70-80% confluence. […] Incorporated [methyl-^3H] thymidine was measured in a liquid scintillation counter (PerkinElmer Inc. Waltham, Mass., USA)."}, "hEPCs [4]": {"test_system": "hEPCs", "test": "hEPC viability by crystal violet staining", "conditions": "L-Hcy 48 h", "protocol": "Confluent hEPCs were treated with L-Hcy at indicated concentrations for functional studies as described in the section of Methods. FIG. 5A. […] FIG. 5B. Representative images of hEPC adhesion. hEPCs treated with L-Hcy for 48 h were harvested and plated on fibronectin-coated cell culture plates for 1 hour at 37° C. Attached cells were photographed and quantified in high-power fields under an inverted microscope. FIG. 5C. Quantitative analysis of adhesion. FIG. 5D. Representative images of hEPC migration. Confluent hEPCs were incubated with L-Hcy for 48 h, scratched to create a wound and evaluated for migration after 20 h. E. Quantitative analysis of migration. FIG. 5F. Quantitative analysis of hEPC proliferation. 80% confluent hEPCs were treated with L-Hcy for 24 h and labeled with ^3[H]-thymidine for the last 4 h. Incorporated ^3[H]-thymidine was measured in a liquid scintillation counter. FIG. 5G. Quantitative analysis of hEPC viability. Confluent hEPCs were treated with L-Hcy for 48 h and nuclear counts determined by crystal violet staining to determine the viable cells. Data are representative of 3 separate experiments and are shown as mean±SD. *P<0.05 versus control. hEPCs; human endothelial progenitor cells; Hcy, homocysteine."}},
  "data": [
    {"smiles": "N[C@@H](CCS)C(=O)O", "note": "[L-Hcy, homocysteine]", "values": [
      {"measurement": "EPC adhesion to fibronectin compared with the control", "setting": "hEPCs [1]", "value": 57, "unit": "%"},
      {"measurement": "Hcy-suppressed adhesion in hEPC (without 12G10)", "setting": "hEPCs [1]; adhesion rescue experiment", "value": 62, "unit": "%"},
      {"measurement": "EPC adhesion to fibronectin", "setting": "hEPCs [1]; control 0.13±0.006", "value": "0.06±0.008", "unit": "OD630 nm"},
      {"measurement": "hEPC migration (value in brackets)", "setting": "hEPCs [2]; Hcy 100 μmol/L", "value": "54.6±2.8"},
      {"measurement": "hEPC migration reduced to", "setting": "hEPCs [2]; Hcy 100 μmol/L", "value": 68, "unit": "%"},
      {"measurement": "hEPC migration (value in brackets)", "setting": "hEPCs [2]; Hcy 250 μmol/L", "value": "49.7±1.1"},
      {"measurement": "hEPC migration reduced to", "setting": "hEPCs [2]; Hcy 250 μmol/L", "value": 62, "unit": "%"},
      {"measurement": "DNA synthesis ([3H] thymidine uptake)", "setting": "hEPCs [3]", "value": "dose sensitively inhibited"},
      {"measurement": "EPC viability", "setting": "hEPCs [4]", "value": "no effect"}
    ]}
  ]
}
